Experimental data: patent US20240148821A1, “PHARMACEUTICAL USE OF CYCLIC PEPTIDE COMPOUND” (CHUGAI SEIYAKU KABUSHIKI KAISHA, priority 2021, published 2024)
Numbered stars: 1 amine (or outer) side, 2 acyl side, 3 side chain; on linkers, the order of the positions; unused ones are H or OH. Bridge positions count the residues as written; N and C are the ends. Square brackets hold non-standard residues; d marks the D form. Peptide text beside a SMILES is read from it. * marks the point of attachment. hPhe(3,5-F2-4-CF3) = N[C@@H](CCc1cc(F)c(C(F)(F)F)c(F)c1)C(=O)O; hPhe(3-Cl-4-CF3) = N[C@@H](CCc1ccc(C(F)(F)F)c(Cl)c1)C(=O)O; hPhe(3-F,4-CF3) = N[C@@H](CCc1ccc(C(F)(F)F)c(F)c1)C(=O)O; NMePhe(4-CF3) = CN[C@@H](Cc1ccc(C(F)(F)F)cc1)C(=O)O; NEtPhe(4-Me) = CCN[C@@H](Cc1ccc(C)cc1)C(=O)O; NMePhe(4-Cl) = CN[C@@H](Cc1ccc(Cl)cc1)C(=O)O; NMePhe(4-Me) = CN[C@@H](Cc1ccc(C)cc1)C(=O)O; NMedβ3hAla = C[C@H](CC(=O)[*:2])N(C)[*:1]; NMeGly(cPent) = CN[C@H](C(=O)O)C1CCCC1; NMeCha = CN[C@@H](CC1CCCCC1)C(=O)O; Hyp = O=C(O)[C@@H]1C[C@@H](O)CN1; NMeAhp(2) = CCCCC[C@H](NC)C(=O)O; NMeI = CC[C@H](C)[C@H](NC)C(=O)O; NMeD = CN[C@@H](CC(=O)O)C(=O)O; NMeL = CN[C@@H](CC(C)C)C(=O)O; NMeV = CN[C@H](C(=O)O)C(C)C; d(β3hA) = C[C@@H](N)CC(=O)O; Azetidin(1-yl) = C1CN(*)C1; Morpholide = C1CN(*)CCO1; NMeA = CN[C@@H](C)C(=O)O; NMeAib = CNC(C)(C)C(=O)O; Nle = CCCC[C@H](N)C(=O)O; Piperidide = C1CCN(*)CC1; Ac5c = NC1(C(=O)O)CCCC1; Aze = O=C(O)[C@@H]1CCN1; Cyclobutyl = C1CC(*)C1; Sar = CNCC(=O)O

Legend:
[1] = target: protein-protein interaction between Kras and SOS1 (biotin-tagged human Kras loaded with GDP, His-tagged human SOS1) (Homo sapiens (Human), UniProt P01116, G12D); experiment: Protein-protein interaction inhibition between Kras and SOS1 (KrasG12D-SOS PPI) using AlphaScreen; assay type: biochemical; conditions: AlphaScreen; biotin-tagged human Kras loaded with GDP, His-tagged human SOS1; read-out: KRAS G12D-SOS PPI IC50;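 further: kras produced in E. coli, Ni-coupled donor beads and streptavidin acceptor beads, excitation 680 nm with emission detected at 520–620 nm via singlet oxygen transfer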
[2] = tested on: Human pancreatic cancer cell line AsPC-1 (G12D mutation Kras); experiment: AsPC-1 cell growth inhibition (AsPC-1 CGI); assay type: cell-based; conditions: read-out: AsPC-1 cell growth inhibition, 50% growth inhibitory concentration (IC50 value); 96 hours, CellTiter-Glo, values classified in ranges
Protocol: Test compounds were serially dilated with dimethyl sulfoxide, and 200 nL was then dispensed to a U-bottom 96-well plate using Labcyte Echo. […] The cell suspension was dispensed to a. plate containing a test compound at 100 μL per well and incubated at 37° C. in a 5% carbon dioxide gas incubator. 96 hours later, 80 μL of CellTiter-Glo (Promega) was added to each well and fluorescence was measured.

Row | SMILES | IC50 [1] [nM] | IC50 [2] [nM]
1 | CC[C@H](C)[C@@H]1NC(=O)[C@H](CC(C)C)N(C)C(=O)C[C@@H](C(=O)N2CCOCC2)N(C)C(=O)[C@H]([C@@H](C)CC)N(C)C(=O)C2(CCCC2)NC(=O)[C@@H]2CCCN2C(=O)[C@H](CCc2ccc(C(F)(F)F)c(Cl)c2)NC(=O)CN(C)C(=O)[C@H](CC2CCCCC2)N(C)C(=O)[C@@H]2CCN2C(=O)[C@H](C)N(C)C1=O [Compound 40] ([NMeL]I[NMeA][Aze][NMeCha][Sar][hPhe(3-Cl-4-CF3)]P[Ac5c][NMeI][NMeD]-Morpholide; lactam N-11) | 0.96 | ≤ 20
2 | CC(C)C[C@H]1C(=O)N[C@@H](COC2CCC2)C(=O)N(C)[C@@H](C)C(=O)N2CC[C@H]2C(=O)N(C)[C@@H](CC2CCCCC2)C(=O)N(C)CC(=O)N[C@@H](CCc2ccc(C(F)(F)F)c(Cl)c2)C(=O)N2CCC[C@H]2C(=O)NC2(CCCC2)C(=O)N(C)[C@@H](C(C)C)C(=O)N(C)[C@H](C(=O)N2CCCCC2)CC(=O)N1C [Compound 45] ([NMeL]S(Cyclobutyl)[NMeA][Aze][NMeCha][Sar][hPhe(3-Cl-4-CF3)]P[Ac5c][NMeV][NMeD]-Piperidide; lactam N-11) | 84 | > 500
3 | CC[C@H](C)[C@@H]1NC(=O)[C@H](CC(C)C)N(C)C(=O)C[C@@H](C(=O)N2CCOCC2)N(C)C(=O)[C@H]([C@@H](C)CC)N(C)C(=O)C2(CCCC2)NC(=O)[C@@H]2CCCN2C(=O)[C@H](CCc2ccc(C(F)(F)F)c(F)c2)NC(=O)CN(C)C(=O)[C@H](Cc2ccc(C)cc2)N(C)C(=O)[C@@H]2CCN2C(=O)[C@H](C)N(C)C1=O [Compound 47] ([NMeL]I[NMeA][Aze][NMePhe(4-Me)][Sar][hPhe(3-F,4-CF3)]P[Ac5c][NMeI][NMeD]-Morpholide; lactam N-11) | 1.5 | ≤ 20
4 | CCCCC[C@H]1C(=O)N[C@@H]([C@@H](C)CC)C(=O)N[C@@H](C)C(=O)N2CC[C@H]2C(=O)N(C)[C@@H](Cc2ccc(C(F)(F)F)cc2)C(=O)N(C)CC(=O)N[C@@H](CCc2ccc(C(F)(F)F)c(Cl)c2)C(=O)N2CCC[C@H]2C(=O)NC2(CCCC2)C(=O)N(C)[C@@H]([C@@H](C)CC)C(=O)N(C)[C@H](C(=O)N2CCOCC2)CC(=O)N1C [Compound 54] ([NMeAhp(2)]IA[Aze][NMePhe(4-CF3)][Sar][hPhe(3-Cl-4-CF3)]P[Ac5c][NMeI][NMeD]-Morpholide; lactam N-11) | 1.9 | ≤ 20
5 | CC[C@H](C)[C@@H]1NC(=O)[C@H](CC(C)C)N(C)C(=O)C[C@@H](C(=O)N2CCC2)N(C)C(=O)[C@H](C2CCCC2)N(C)C(=O)C2(CCCC2)NC(=O)[C@@H]2CCCN2C(=O)[C@H](CCc2cc(F)c(C(F)(F)F)c(F)c2)NC(=O)CN(C)C(=O)[C@H](Cc2ccc(C)cc2)N(CC)C(=O)[C@@H]2CCN2C(=O)[C@H](C)N(C)C1=O [Compound 55] ([NMeL]I[NMeA][Aze][NEtPhe(4-Me)][Sar][hPhe(3,5-F2-4-CF3)]P[Ac5c][NMeGly(cPent)][NMeD]-{Azetidin(1-yl)}; lactam N-11) | 0.77 | ≤ 20
6 | CC[C@H](C)[C@@H]1NC(=O)[C@H](C)N(C)C(=O)C[C@@H](C)NC(=O)[C@H](CC(C)C)N(C)C(=O)C2(CCCC2)NC(=O)[C@H](CC(C)C)N(C)C(=O)[C@H](CCc2ccc(C(F)(F)F)c(Cl)c2)NC(=O)CN(C)C(=O)[C@H](CC2CCCCC2)N(C)C(=O)CN(C)C(=O)CN(C)C1=O [Compound 61] (cyclo([Ac5c][NMeL][d(β3hA)][NMeA]I[Sar][Sar][NMeCha][Sar][hPhe(3-Cl-4-CF3)][NMeL])) | 16 | > 500
7 | CCO[C@@H]1C[C@H]2C(=O)NC3(CCCC3)C(=O)N(C)[C@@H](C3CCCC3)C(=O)N(C)[C@H](C)CC(=O)N(C)[C@@H](CC(C)C)C(=O)N[C@@H]([C@@H](C)CC)C(=O)N(C)CC(=O)N(C)CC(=O)N(C)[C@@H](Cc3ccc(C(F)(F)F)cc3)C(=O)N(C)CC(=O)N[C@@H](CCc3cc(F)c(C(F)(F)F)c(F)c3)C(=O)N2C1 [Compound 66] (cyclo([Ac5c][NMeGly(cPent)][NMedβ3hAla][NMeL]I[Sar][Sar][NMePhe(4-CF3)][Sar][hPhe(3,5-F2-4-CF3)][Hyp](Et))) | 3.6 | ≤ 20
8 | CCCC[C@@H]1NC(=O)C(C)(C)N(C)C(=O)[C@H](CC(C)C)NC(=O)[C@H](CCc2ccc(C(F)(F)F)c(F)c2)NC(=O)CN(C)C(=O)[C@H](Cc2ccc(Cl)cc2)N(C)C(=O)CN(C)C(=O)CN(C)C(=O)[C@H]([C@@H](C)CC)NC(=O)[C@H](CC(C)C)N(C)C(=O)C[C@@H](C)N(C)C1=O [Compound 83] (cyclo(I[Sar][Sar][NMePhe(4-Cl)][Sar][hPhe(3-F,4-CF3)]L[NMeAib][Nle][NMedβ3hAla][NMeL])) | 110 | > 500
